From patent publication US20260248812A1, “METHODS OF TREATING CONGENITAL ADRENAL HYPERPLASIA” (Spruce Biosciences, Inc., priority 2019, published 2026) come the findings set out here.

For data set [1], the system named is adults with classic CAH. The data set is described as follows: Phase 2 clinical study of Compound 3 with glucocorticoid: time matched change of serial hormone profiles (ACTH, 17-OHP, A4). In kind it is in vivo, human. The note with it: non-dexamethasone subjects; for A4 level profile, time matched change from baseline: 6 am to 8 am. Here is the method: Study Compound 3, a Phase 2, open-label, first-in-CAH-patients, proof-of-concept, dose ranging study, evaluated the safety and efficacy of repeated doses of SPR001 in adults with classic CAH. The population (n=24; with 2 subjects completing 2 cohorts) consisted of subjects with classic CAH that is not adequately controlled despite a stable glucocorticoid regimen based on the assessment of a single hormone at study screening, 17-OHP>800 ng/dl, which is 4 times the upper limit of a normal reference range of 17-OHP level. 17-OHP was chosen as the hormone as an inclusion criterion, as at the time, it represented the state-of-art in CAH for assessment of disease severity and adequacy of glucocorticoid therapy. The study comprised 3 cohorts, Cohort A was a 6-week intra-subject dose escalation treatment period with three 2-week treatment periods of 200 mg […] (QD) (only daily), 600 mg QD and 1000 mg QD without washout between treatment periods. Cohorts B and C consisted of 2-week treatment periods of either 100 bis in die (BID) (twice daily) (Cohort C) or 200 mg BID (Cohort B). At baseline, the following hormones were assessed, 17-OHP, ACTH and A4. The same hormones were assessed at the end of each 2-week treatment period.
A clinical study is conducted involving up to 52 weeks treatment of Compound 3 with concurrent daily glucocorticoid therapy for the treatment of adults with classic CAH. After screening using A4 and ACTH level criteria, eligible patients are enrolled into up to 12 weeks of placebo-controlled treatment followed by 40 weeks of open label treatment and a 4-week washout/safety follow-up period.
(§1) As part of the study, pre and pose concentrations of DEX and cortisol were measured. In some embodiments, the biomarker reduction analysis comprises all subjects.
(§2) A pooled baseline (dotted) and 2 lines (solid) representing two dose groups (doses=200 mg and doses >200 mg) using the percentage change from dose group baseline presented as percentage change from the pooled baseline. The figures are divided by disease control group, poor disease control with highly elevated ACTH and A4 and the good disease control group with ACTH and A4 that is near normal or below normal ranges. Each group has elevated 17-OHP.
as §2, with “In both groups, 17-OHP is elevated above its target (1200 ng/dL). The Y-axis is different with the poor disease control” for “Each”, “exceeding 8000 ng/dL in FIG. 3A and the good disease group was near an upper bound of approximately 3000 ng/dL in FIG. 3B.” for “has elevated 17-OHP.”

Data set [2] concerns the target CYP3A4 pathway (Homo sapiens, UniProt P08684). Put plainly: CYP3A4 pathway inhibition (statement). In kind it is in vitro ADME. The note with it: dexamethasone is primarily metabolized through the CYP3A4 pathway. On the procedure:
as §1

Chain of CYP3A4 pathway (P08684 whole entry): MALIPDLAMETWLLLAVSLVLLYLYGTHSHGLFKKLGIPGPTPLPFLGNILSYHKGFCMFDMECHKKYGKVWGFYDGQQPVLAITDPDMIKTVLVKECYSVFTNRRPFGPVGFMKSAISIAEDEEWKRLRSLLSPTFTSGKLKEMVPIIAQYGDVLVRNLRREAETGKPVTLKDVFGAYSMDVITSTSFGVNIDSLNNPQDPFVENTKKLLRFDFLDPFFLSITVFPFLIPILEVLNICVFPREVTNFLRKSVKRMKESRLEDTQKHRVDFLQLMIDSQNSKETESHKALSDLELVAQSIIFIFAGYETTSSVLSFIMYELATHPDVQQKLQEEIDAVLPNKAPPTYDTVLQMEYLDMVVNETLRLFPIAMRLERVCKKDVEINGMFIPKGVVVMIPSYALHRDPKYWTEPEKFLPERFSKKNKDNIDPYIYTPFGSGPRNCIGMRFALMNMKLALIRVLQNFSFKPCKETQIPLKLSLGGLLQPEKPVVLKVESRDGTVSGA

Regarding `CCC(CC)c1cc(C)nc2c(-c3sc(N4CCOCC4)nc3Cl)c(C)nn12` [Compound 3, 4-(4-chloro-5-(2,5-dimethyl-7-(pentan-3-yl)pyrazolo[1,5-a]pyrimidin-3-yl)thiazol-2-yl)morpholine], the “17-OHP level, serial hormone profile, time matched change from baseline” value in data set [1] (both poor and good disease control groups, 10 pm to 8 am, FIGS. 3A and 3B) is reported as “reduced the magnitude of the increase in 17-OHP post 3 am”. The “ACTH level, serial hormone profile, time matched change from baseline” value is on record as “generally maintained the serial profile below the ULN” in data set [1] (good disease control group (ACTH and A4 near or below normal), 10 pm to 8 am, FIG. 2B); “reduced the magnitude of the increase in ACTH post 3 am” in data set [1] (poor disease control group (highly elevated ACTH and A4), 10 pm to 8 am, doses =200 mg and >200 mg, FIG. 2A). The “A4 level profile, time matched change from baseline” value is listed as “further reduce A4 level compared to the baseline level” in data set [1] (good disease control group, FIG. 4B) and “improves the A4 profile in subjects toward the blended gender based ULN” in data set [1] (poor disease control group, blended gender based ULN approximately 212 ng/dL, FIG. 4A). In addition, the “inhibition of the CYP3A4 pathway” value in data set [2] is recorded as “inhibitor of the CYP3A4 pathway”.
